Among the test systems are NCI/ADR-RES ovarian; LOX IMVI melanoma; CCRF-CEM leukemia; A498 renal; HCT-116 colon; KM12 colon; HCT-15 colon; NCI-H460 lung.
Assay in all cases: NCI-60 cell line screen, 48 h

SMILES strings stand for the structures.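 Method: 48-hour compound exposure of cells in 96-well plates, five concentrations, linear interpolation of endpoints. The concentration for 50% growth inhibition is given as GI50. TGI: total growth inhibition.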

On to `CCOC(=O)c1ccc2[nH]c(-c3ccc(S(=O)(=O)F)cc3)cc(=O)c2c1`, for which the TGI with NCI/ADR-RES ovarian is above 100 µM; in the assay on LOX IMVI melanoma, above 100 µM; in the assay on CCRF-CEM leukemia, above 100 µM; with A498 renal it was 68 µM; with HCT-116 colon it was 76.9 µM; in the assay on KM12 colon, above 100 µM. For the same compound, the TGI in the assay on HCT-15 colon and in the assay with NCI-H460 lung was above 100 µM in each case.

For the compound `O=C1C(Cl)=C(Nc2cccc(Cl)c2)C(=O)N1Cc1ccccc1`, the GI50 with NCI/ADR-RES ovarian was 6.87 µM; in the assay with LOX IMVI melanoma it was 4.01 µM; in the assay on CCRF-CEM leukemia it was 2.39 µM; in the assay with A498 renal it was 10.6 µM; with HCT-116 colon, 3.56 µM; in the assay on KM12 colon, 11.5 µM. Further, the GI50 is 10.8 µM in the assay on HCT-15 colon and 7.11 µM in the assay with NCI-H460 lung. The TGI with NCI/ADR-RES ovarian was 24.7 µM; in the assay with LOX IMVI melanoma it was 15.3 µM; in the assay with CCRF-CEM leukemia, above 100 µM; in the assay on A498 renal, 22.7 µM; in the assay with HCT-116 colon, 13.3 µM; in the assay with KM12 colon it was 26.9 µM. Moreover, the values for the TGI with HCT-15 colon and in the assay on NCI-H460 lung were 27.4 µM and 27.9 µM, respectively.

On to `CCCCON(OC(=O)c1ccccc1)C(=O)c1ccccc1`, for which the GI50 in the assay with NCI/ADR-RES ovarian is above 100 µM; in the assay with LOX IMVI melanoma, above 100 µM; with CCRF-CEM leukemia, 49.8 µM; in the assay on A498 renal it was above 100 µM; in the assay with HCT-116 colon, above 100 µM; with KM12 colon it was above 100 µM. Also, the GI50 in the assay on HCT-15 colon and in the assay on NCI-H460 lung was above 100 µM in each case. Besides, the TGI with NCI/ADR-RES ovarian, in the assay with LOX IMVI melanoma, in the assay with CCRF-CEM leukemia, in the assay with A498 renal, with HCT-116 colon and in the assay on KM12 colon was above 100 µM throughout. Besides, the TGI in the assay on HCT-15 colon and with NCI-H460 lung was above 100 µM throughout.

Consider `CC12CCC3C(CCC4Cc5[nH]c6ccccc6c5CC43C)C1CCC2O` (stereo not drawn), for which the GI50 with NCI/ADR-RES ovarian was 0.481 µM; in the assay on LOX IMVI melanoma it was 1.01 µM; in the assay on CCRF-CEM leukemia it was 1 µM; in the assay with A498 renal, 0.696 µM; in the assay with HCT-116 colon, 0.501 µM; in the assay on KM12 colon, 2.8 µM. Moreover, the GI50 in the assay with HCT-15 colon was 0.695 µM; in the assay on NCI-H460 lung, 0.609 µM. Also, the TGI in the assay with NCI/ADR-RES ovarian was 5.54 µM; with LOX IMVI melanoma it was 7.13 µM; with CCRF-CEM leukemia, 6.44 µM; in the assay with A498 renal it was 6.44 µM; with KM12 colon it was 8.61 µM; with HCT-15 colon it was above 100 µM. In the assay on NCI-H460 lung, the TGI is above 100 µM.

On to `Cc1cccc(NC(=O)CCc2ccc(N3C(N)=NC(N)=NC3(C)C)cc2)c1`, for which the GI50 with NCI/ADR-RES ovarian is above 100 µM; in the assay with LOX IMVI melanoma, 0.654 µM; in the assay on CCRF-CEM leukemia, 1.07 µM; in the assay with A498 renal, above 65.6 µM; in the assay with HCT-116 colon it was 0.632 µM; with KM12 colon, 1.24 µM. Also, the GI50 is above 100 µM in the assay with HCT-15 colon and 0.454 µM in the assay on NCI-H460 lung. The TGI with NCI/ADR-RES ovarian, in the assay with LOX IMVI melanoma, in the assay on CCRF-CEM leukemia, with A498 renal, in the assay on HCT-116 colon and in the assay on KM12 colon was above 100 µM in each case. The TGI in the assay on HCT-15 colon and in the assay on NCI-H460 lung was above 100 µM each time.

Turning to `Clc1ccc(CSC(Cn2ccnc2)c2ccc(Cl)cc2Cl)cc1` (stereo not drawn), the GI50 is 1.46 µM in the assay with NCI/ADR-RES ovarian; 1.59 µM with LOX IMVI melanoma; 1.94 µM in the assay with CCRF-CEM leukemia; 1.13 µM in the assay with A498 renal; 1.26 µM in the assay with HCT-116 colon; 1.66 µM with KM12 colon. Also, the GI50 is 1.68 µM with HCT-15 colon and 1.47 µM with NCI-H460 lung. Moreover, the TGI is 3.05 µM with NCI/ADR-RES ovarian; 2.93 µM with LOX IMVI melanoma; 5.46 µM with CCRF-CEM leukemia; 2.33 µM in the assay with A498 renal; 2.51 µM in the assay with HCT-116 colon; 3.3 µM with KM12 colon. The figures for the TGI in the assay on HCT-15 colon and in the assay on NCI-H460 lung were 3.76 µM and 2.78 µM, respectively.

With `CC1(C)N=C(N)N=C(N)N1c1cccc(CCCCc2cccc(S(=O)(=O)F)c2)c1`, the GI50 is above 79.2 µM with NCI/ADR-RES ovarian; 0.424 µM in the assay on LOX IMVI melanoma; 0.559 µM in the assay on CCRF-CEM leukemia; 7.36 µM in the assay on A498 renal; 0.445 µM in the assay with HCT-116 colon; 0.474 µM in the assay with KM12 colon. The GI50 in the assay with HCT-15 colon is 14.1 µM; in the assay with NCI-H460 lung, 0.327 µM. Also, the TGI in the assay on NCI/ADR-RES ovarian was above 100 µM; in the assay on LOX IMVI melanoma, above 100 µM; in the assay on CCRF-CEM leukemia it was 53.4 µM; in the assay with A498 renal, above 100 µM; in the assay with HCT-116 colon, above 100 µM; in the assay with KM12 colon, 14.2 µM. Moreover, the TGI is above 100 µM in the assay with HCT-15 colon and above 75.7 µM in the assay on NCI-H460 lung.

`Cn1cc(-c2ccc3c(Nc4cccc(NC(=O)Nc5cccc(F)c5)c4)ncnc3c2)cn1`: the GI50 with NCI/ADR-RES ovarian is 10.8 µM; in the assay on LOX IMVI melanoma it was 1.55 µM; with CCRF-CEM leukemia, 0.0474 µM; with A498 renal, 0.0532 µM; in the assay on HCT-116 colon, 2.04 µM; in the assay with KM12 colon, 2.52 µM. In addition, the GI50 with HCT-15 colon was 2.5 µM; in the assay with NCI-H460 lung, 0.984 µM. In addition, the TGI in the assay on NCI/ADR-RES ovarian was above 100 µM; with LOX IMVI melanoma, 3.64 µM; with CCRF-CEM leukemia it was 13.7 µM; in the assay with A498 renal, 2.99 µM; in the assay with HCT-116 colon, 7.9 µM; with KM12 colon it was 10.8 µM. Further, the figures for the TGI in the assay with HCT-15 colon and in the assay with NCI-H460 lung were 13.1 µM and 2.41 µM, respectively.

As for `O=[N+]([O-])c1ccc(S(=O)(=O)Cc2ccccc2)c([N+](=O)[O-])c1`, the TGI in the assay on NCI/ADR-RES ovarian is above 51.8 µM; in the assay with LOX IMVI melanoma, 3.39 µM; in the assay on CCRF-CEM leukemia, 0.498 µM; with A498 renal, 31.1 µM; in the assay on HCT-116 colon, 3.51 µM; in the assay with KM12 colon, 23.7 µM. Also, the results for the TGI with HCT-15 colon and in the assay with NCI-H460 lung were 3.94 µM and 9.43 µM, respectively.

`CCSCC1CC(O)(c2ccccc2)C(c2ccccc2)C(c2ccc(Cl)cc2)O1` (stereo not drawn): the GI50 in the assay with NCI/ADR-RES ovarian was 1.97 µM; in the assay on LOX IMVI melanoma, 1.65 µM; in the assay with CCRF-CEM leukemia, 2.03 µM; in the assay with A498 renal, 1.79 µM; in the assay with HCT-116 colon, 1.21 µM; with KM12 colon, 2.56 µM. For the same compound, the GI50 with HCT-15 colon was 1.69 µM; in the assay with NCI-H460 lung, 1.42 µM. Further, the TGI in the assay on NCI/ADR-RES ovarian worked out at 5.34 µM; in the assay with LOX IMVI melanoma, 3.05 µM; with CCRF-CEM leukemia, 6.5 µM; in the assay on A498 renal, 3.41 µM; with HCT-116 colon, 2.58 µM; with KM12 colon it was 6.92 µM. Moreover, the TGI in the assay on HCT-15 colon turned out to be 4.5 µM; in the assay on NCI-H460 lung it was 3.44 µM.

Values taken from PubChem BioAssay (NCI).
